The text below walks through data of patent US20090257985A1, “METHODS OF REGULATING EXPRESSION OF GENES OR OF GENE PRODUCTS USING SUBSTITUTED TETRACYCLINE COMPOUNDS” (priority 2006, published 2009).

In data set [1] the test system is rtTA2s-M2. Description: Activation of rtTA2s-M2 in vitro. It counts as cell-based. The following applies: relative to doxycycline.
Data set [2] concerns tet operator-linked nucleotide sequence. The following applies: as demonstrated in U.S. Pat. No. 5,789,156; cited from earlier work.
The conditions of data set [3]: described in Mansuy and Bujard Curr. Op. Neurobiol. 10:593-96; cited from earlier work.
In data set [4] the test system is rtTA2-34R. Description: rtTA-mediated gene activation, luciferase positive cell line 34R. It counts as cell-based. The following applies: FIGS. 2A and 2C. The text has this:
(§1) FIGS. 2A-2D show a comparison of doxycycline and 9-t-butyl doxcycline in 34R and MT2 rtTA mutants. FIGS. 2A and 2B show the effect of doxycyline on 34R and MT2 mutants, respectively. FIGS. 2C and 2D show the effect of 9-t-butyl doxycycline on 34R and MT2 mutants, respectively.

In data set [5] the test system is rtTA2-MT2. The data set is described as follows: rtTA-mediated gene activation, luciferase positive cell line MT2. It is filed as cell-based.
Excerpt: as §1

In data set [6] the test system is rtTA2s-M2. Description: Activation of rtTA2s-M2 gene in vivo, bioluminescence of bitransgenic mice rTA M2CaMK-1/LC1. The following applies: 0.2 mg/mL in drinking water with 5% sucrose, seven days, compared with doxycycline at 2 mg/mL. The method, then: 9-t-butyl doxycycline was tested in bitransgenic mice with rTA M2CaMK-1/LC1. The mice expressed the rtTA2s-M2 gene under control of the forebrain specific α-CamKII promoter. In addition, the LC1 mouse had luciferase and cre genes under the control of the bi-directional promoter. The mice were adminstered doxycycline (2 mg/mL) for seven days in the drinking water with 5% sucrose or with 9-t-butyl doxycycline at (0.2 and 2 mg/mL). The mice were anaesthetized with avertin and injected with […] (IP) and placed in the bioluminescence chamber and measured 5 minutes later.

Data set [7] relates to rtTA. Particulars: in vitro; relative to doxycycline.

For 5-phenylcarbamate doxcycline, the “activation of rtTA2s-M2 compared with doxycycline” value in data set [1] is on record as “two fold better activiator”.
On to `Cc1c2c(c(O)c3c(O)cccc13)C(=O)[C@]1(O)C(=O)C(C(N)=O)=C(O)[C@@H](N(C)C)[C@@H]1C2` [anhydrotetracycline], for which, in data set [2], the “strength as inducing agent” value is recorded as “strong inducing agents”.
For `C[C@H]1c2cccc(O)c2C(=O)C2=C(O)[C@]3(O)C(=O)C(C(N)=O)=C(O)[C@@H](N(C)C)[C@@H]3[C@@H](O)[C@@H]21` [doxycycline], in data set [3], the “penetration of the blood-brain barrier” value is reported as “limited penetration of the blood-brain barrier”.
As for 9-t-butyl doxycycline, in data set [4], the “activity compared with doxycycline, 34R rtTA mutant” value is “ten times more active”. The “activity compared with doxycycline, MT2 rtTA mutant” value in data set [5] (FIGS. 2B and 2D) is listed as “ten times more active”. Moreover, in data set [5] (rtTA2-MT2 system), the “concentration at which full induction of the system occurred” value worked out at 10 ng/mL. For the same molecule, the “activation response (luciferase bioluminescence)” value in data set [6] is “better activation response”. The “concentration inducing all rtTA's, lower than doxycycline” value in data set [7] came out at 10 fold.
